The record followed here is US20260327243A1, “SPIRO-HETEROCYCLIC INHIBITORS OF KRAS G12C MUTANT PROTEINS AND USES THEREOF” (AMGEN INC., priority 2023, published 2026).

A word on the pIC50: it is the negative decadic logarithm of the IC50, by convention in mol/L. A low value points to a large IC50.

pIC50: −log10 of the molar value.

In one assay the target is KRAS^G12C (Homo sapiens, UniProt P01116, C118A/G12C). The assay can be described thus: Coupled Nucleotide Exchange Assay. It is filed as biochemical. The following applies: GDP-bound KRAS (aa 1-169) G12C/C118A; 2 h compound pre-incubation; SOS-mediated exchange, 30 min; cRAF binding (AlphaLISA). The essentials:
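GDP-bound His-tagged KRAS aa 1-169 (G12C/C118A) pre-incubated 2 h with compound in 25 mM HEPES pH 7.4, 10 mM MgCl2, 0.01% Triton X-100 (±0.1% BSA), then SOS (aa 564-1049) plus GTP added for 30 min. GST-cRAF RBD binding read by AlphaLISA; DMSO-normalized, 4-parameter fit gives IC50.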

In the next assay the test system is MIA PaCa-2 cells. The assay can be described thus: Cell Viability Assay, MIA PaCa-2. The following applies: human pancreatic carcinoma, CellTiter-Glo. It is filed as cell-based. On the procedure: (§1) MIA PaCa-2 (human pancreatic carcinoma; ATCC CRL-1420) or A549 (human lung carcinoma; ATCC CCL-185) cells were cultured in RPMI 1640 medium containing 10% fetal bovine serum and 1×penicillin/streptomycin/L-glutamine. Cells were seeded in 384-well plates at a density of 1.67E+04 cells/mL and incubated at 37° C., 5% CO2, overnight. Serially-diluted compound or DMSO was added to the cells, and plates were incubated at 37° C., 5% CO2 for 72 h. Cell viability was measured using a CellTiter-Glo® Luminescent Cell Viability Assay kit (Promega) according to the manufacturer's protocol. The luminescence signal of treated samples was normalized to DMSO control, and data were analyzed using a 4-parameter logistic model to calculate IC50 values.
(§2) The following data (Table 3) categorizes the IC50 of each compound for inhibiting enzymatic activity of KRAS^G12C in the indicated cells.
On the technique in general: ATP-based viability assays read luminescence as a measure of living cells.

For the next assay, the system named is A549 cells. The assay can be described thus: Cell Viability Assay, A549. It is filed as cell-based. The following applies: human lung carcinoma, 72 h, CellTiter-Glo. The procedure: as §1, §2

Chain of KRAS^G12C (P01116 1-169 isoform P01116-2 G12C/C118A): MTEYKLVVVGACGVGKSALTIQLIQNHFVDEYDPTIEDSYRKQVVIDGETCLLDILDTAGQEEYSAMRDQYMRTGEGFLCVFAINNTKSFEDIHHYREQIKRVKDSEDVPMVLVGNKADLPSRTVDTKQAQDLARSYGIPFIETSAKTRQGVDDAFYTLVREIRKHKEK

As to `C=CC(=O)N1CCN([C@@H]2CN(c3cc(N4CCC5(CC4)OCC(CO)n4ncc(C)c45)nc(C(F)(F)F)n3)[C@@H]2C)CC1` (stereo partly drawn) [Compound 3-081, 1-(4-((2R,3R)-1-(6-(7′-(hydroxymethyl)-3′-methyl-6′,7′-dihydrospiro[piperidine-4,4′-pyrazolo[5,1-c][1.4]oxazin]-1-yl)-2-(trifluoromethyl)pyrimidin-4-yl)-2-methylazetidin-3-yl)piperazin-1-yl)prop-2-en-1-one], the negative-log IC50 (pIC50) at KRAS^G12C is 7.20; in the assay on MIA PaCa-2 cells (Homo sapiens, MIA PaCa-2, 72 h) it was 6.88; in the assay with A549 cells (A549), less than 5.30.

Take `C=CC(=O)N1CCN([C@@H]2CN(c3cc(N4CC[C@]5(C[C@H]4C)OCCn4ncc(C)c45)nc(C(F)(F)F)n3)[C@@H]2C)CC1` [Compound 3-077, 1-(4-((2R,3R)-1-(6-((2R,4R)-2,3′-dimethyl-6′,7′-dihydro-1H-spiro[piperidine-4,4′-pyrazolo[5,1-c][1,4]oxazin]-1-yl)-2-(trifluoromethyl)-4-pyrimidinyl)-2-methyl-3-azetidinyl)-1-piperazinyl)-2-propen-1-one]: the negative logarithm of the IC50 (pIC50) on KRAS^G12C was 7.68; in the assay on MIA PaCa-2 cells (Homo sapiens, MIA PaCa-2, 72 h) it was 6.74; in the assay on A549 cells (A549), less than 5.30.

Consider `C=CC(=O)N1CCN([C@@H]2CN(c3cc(N4CCC5(OCC=C5C)C(C)C4)nc(C(F)(F)F)n3)[C@@H]2C)CC1` (relative stereo) [Compound 3-060, 1-(4-((2R,3R)-1-(6-((5R,6S)-4,6-Dimethyl-1-oxa-8-azaspiro[4.5]dec-3-en-8-yl)-2-(trifluoromethyl)pyrimidin-4-yl)-2-methylazetidin-3-yl)piperazin-1-yl) prop-2-en-1-one], for which the negative logarithm of the IC50 (pIC50) at KRAS^G12C is 6.39; in the assay on MIA PaCa-2 cells (Homo sapiens, MIA PaCa-2, 72 h), 5.96; with A549 cells (A549) it was less than 5.30.

As to `C=CC(=O)N1CCN([C@@H]2CN(c3cc(N4CC[C@]5(C[C@H]4C)OCCn4ncc(C)c45)nc(C(F)F)n3)[C@@H]2C)CC1` [Compound 3-078, 1-(4-((2R,3R)-1-(2-(difluoromethyl)-6-((2R,4R)-2,3′-dimethyl-6′,7′-dihydro-1H-spiro[piperidine-4,4′-pyrazolo[5.1-c][1,4]oxazin]-1-yl)-4-pyrimidinyl)-2-methyl-3-azetidinyl)-1-piperazinyl)-2-propen-1-one], the negative-log IC50 (pIC50) is 7.05 on KRAS^G12C; 6.41 in the assay on MIA PaCa-2 cells (Homo sapiens, MIA PaCa-2, 72 h); less than 5.30 in the assay with A549 cells (A549).

For `C=CC(=O)N1CCN([C@@H]2CN(c3cc(N4CCC5(CC4)OCCn4ncc(C)c45)nc(C(F)(F)F)n3)[C@@H]2C)CC1` [Compound 3-076, 1-(4-((2R,3R)-2-Methyl-1-(6-(3′-methyl-6′,7′-dihydrospiro[piperidine-4,4′-pyrazolo[5,1-c][1,4]oxazin]-1-yl)-2-(trifluoromethyl)pyrimidin-4-yl)azetidin-3-yl)piperazin-1-yl)prop-2-en-1-one], the negative-log IC50 (pIC50) on KRAS^G12C was 7.14; in the assay on MIA PaCa-2 cells (Homo sapiens, MIA PaCa-2, 72 h), 6.67; in the assay on A549 cells (A549) it was less than 5.30.

For the compound `C=CC(=O)N1CCN([C@@H]2CN(c3cc(N4CCC5(CC4)c4c(C)ccnc4C4(COC4)C5F)nc(C(F)(F)F)n3)[C@@H]2C)CC1` (stereo partly drawn) [Compound 3-093, 1-(4-((2R,3R)-1-(6-(6′-fluoro-4′-methyl-1″H-dispiro[oxetane-3,7′-cyclopenta[b]pyridine-5′,4″- piperidin]-1″-yl)-2-(trifluoromethyl)-4-pyrimidinyl)-2-methyl-3-azetidinyl)-1-piperazinyl)-2-propen-1-one], the negative logarithm of the IC50 (pIC50) is 6.97 at KRAS^G12C; 6.57 in the assay with MIA PaCa-2 cells (Homo sapiens, MIA PaCa-2, 72 h); less than 5.30 in the assay on A549 cells (A549).

As to `C=CC(=O)N1CCN([C@@H]2CN(c3cc(N4CC[C@]5(C[C@H]4C)OC4(COC4)c4nccc(C)c45)nc(C(F)(F)F)n3)[C@@H]2C)CC1` [Compound 3-104, 1-(4-((2R,3R)-1-(6-((2″R,5′R)-2″,4′-dimethyl-1″H-dispiro[oxetane-3,7′-furo[3,4-b]pyridine-5′,4″-piperidin]-1″- yl)-2-(trifluoromethyl)-4-pyrimidinyl)-2-methyl-3-azetidinyl)-1-piperazinyl)-2-propen-1-one], the negative-log IC50 (pIC50) on KRAS^G12C is 7.68; in the assay on MIA PaCa-2 cells (Homo sapiens, MIA PaCa-2, 72 h), 7.09; in the assay with A549 cells (A549), less than 5.30.

Regarding `C=CC(=O)N1CCN(C2CN(c3cc(N4CCC5(CC4)c4ccccc4C(=O)N5C)nc(C(F)(F)F)c3C#N)C2)CC1` [Compound 3-004, 4-(3-(4-Acryloylpiperazin-1-yl)azetidin-1-yl)-6-(2-methyl-3-oxospiro[isoindoline-1,4′-piperidin]-1′-yl)-2-(trifluoromethyl)nicotinonitrile], the pIC50 was 6.81 on KRAS^G12C; 6.28 in the assay on MIA PaCa-2 cells (Homo sapiens, MIA PaCa-2, 72 h); less than 5.30 with A549 cells (A549).

For the compound `C=CC(=O)N1CCN(C2CN(c3cc(N4CCC5(CC4)OCc4cnccc45)nc(C(F)(F)F)c3C#N)C2)CC1` [Compound 3-043], the negative-log IC50 (pIC50) at KRAS^G12C is 5.80; in the assay with MIA PaCa-2 cells (Homo sapiens, MIA PaCa-2, 72 h), 5.89; with A549 cells (A549), less than 5.30.

Consider `C=CC(=O)N1CCN(C2CN(c3cc(N4CCC5(CC4)OC(C)C=C5C)nc(C(F)(F)F)c3C#N)C2)CC1` (single isomer, unassigned) [Compound 3-054-1], for which the pIC50 at KRAS^G12C is 6.89; in the assay with MIA PaCa-2 cells (72 h) it was 6.22; in the assay on A549 cells (A549), less than 5.30.

Turning to `C=CC(=O)N1CCN(C2CN(c3cc(N4CCC5(CC4)OC(C)C=C5C)nc(C(F)(F)F)c3C#N)C2)CC1` (single isomer, unassigned) [Compound 3-054-2], the pIC50 at KRAS^G12C is 6.42; in the assay on MIA PaCa-2 cells (72 h), 5.83; in the assay with A549 cells it was less than 5.30.

For `C=CC(=O)N1CCN([C@@H]2CN(c3cc(N4CCC5(CC4)C(=O)C4(COC4)c4nccc(C)c45)nc(C(F)(F)F)n3)[C@@H]2C)CC1` [Compound 3-099, 4′-methyl-1″-(6-((2R,3R)-2-methyl-3-(4-(2-propenoyl)-1-piperazinyl)-1-azetidinyl)-2-(trifluoromethyl)-4-pyrimidinyl)dispiro[oxetane-3,7′-cyclopenta[b]pyridine-5′,4″-piperidin]-6′-one], the negative logarithm of the IC50 (pIC50) was 7.39 on KRAS^G12C; 6.78 in the assay on MIA PaCa-2 cells (Homo sapiens, MIA PaCa-2, 72 h); less than 5.30 in the assay with A549 cells (A549).

In the case of `C=CC(=O)N1CCN([C@@H]2CN(c3cc(N4CCC5(CC4)OC4(COC4)c4nccc(C)c45)nc(C(F)F)n3)[C@@H]2C)CC1` [Compound 3-103, 1-(4-((2R,3R)-1-(2-(difluoromethyl)-6-(4′-methyl-1″H-dispiro[oxetane-3,7′-furo[3,4-b]pyridine-5′,4″- piperidin]-1″-yl)-4-pyrimidinyl)-2-methyl-3-azetidinyl)-1-piperazinyl)-2-propen-1-one], the pIC50 at KRAS^G12C is 7.44; in the assay with MIA PaCa-2 cells (Homo sapiens, MIA PaCa-2, 72 h), 6.77; with A549 cells (A549), less than 5.30.

Take `C=CC(=O)N1CCN([C@@H]2CN(c3cc(N4CCC5(CC4)OC[C@@H](C)n4ncc(C)c45)nc(C(F)(F)F)n3)[C@@H]2C)CC1` [Compound 3-100, 1-(4-((2R,3R)-1-(6-((7′R)-3′,7′-dimethyl-6′,7′-dihydro-1H-spiro[piperidine-4,4′-pyrazolo[5,1-c][1,4]oxazin]-1-yl)-2-(trifluoromethyl)-4-pyrimidinyl)-2-methyl-3-azetidinyl)-1-piperazinyl)-2-propen-1-one]: the pIC50 was 7.40 on KRAS^G12C; 6.81 in the assay on MIA PaCa-2 cells (Homo sapiens, MIA PaCa-2, 72 h); less than 5.30 in the assay on A549 cells (A549).

On to `C=CC(=O)N1CCN(C2CN(c3cc(N4CCC5(CC4)c4ccccc4CN5C)nc(C(F)(F)F)c3C#N)C2)CC1` [Compound 3-014], for which the negative-log IC50 (pIC50) is 6.30 on KRAS^G12C; 6.16 in the assay with MIA PaCa-2 cells (Homo sapiens, MIA PaCa-2, 72 h); less than 5.30 in the assay with A549 cells (A549).
